Laboratory results taken from ChEMBL document CHEMBL5303304, “EUbOPEN Chemogenomics Library - IncuCyte” (2023).
Numbered stars: 1 amine (or outer) side, 2 acyl side, 3 side chain; on linkers, the order of the positions; unused ones are H or OH. Bridge positions count the residues as written; N and C are the ends. Square brackets hold non-standard residues; d marks the D form. Peptide text beside a SMILES is read from it. I, II: the chains in the order shown. Hexamethylenediamine = C(CCCN[*:2])CCN[*:1]; Dip = N[C@H](C(=O)O)C(c1ccccc1)c1ccccc1; Chg = N[C@H](C(=O)O)C1CCCCC1; NMeA = CN[C@@H](C)C(=O)O

Key:
Assay type in all cases: toxicity, cell-based
U2OS = assay: Incucyte cell viability with U2OS; conditions: human, 10 µM, compound concentration 10 uM
HEK-293T = assay: Incucyte cell viability with HEK293T; conditions: human, 10 µM, compound concentration 10 uM
Fibroblast = assay: Incucyte cell viability with human fibroblast; conditions: 10 µM, compound concentration 10 uM
Further: unitless GR value; below 1 slowed growth and below 0 cell loss.

| Structure (SMILES) | Growth Rate (U2OS; 24 h, replicate number 1) | Growth Rate (U2OS; 24 h, replicate number 2) | Growth Rate (HEK-293T; 24 h, replicate number 1) | Growth Rate (HEK-293T; 24 h, replicate number 2) | Growth Rate (Fibroblast; 0 h, replicate number 2) | Growth Rate (Fibroblast; 6 h, replicate number 2) | Growth Rate (Fibroblast; 12 h, replicate number 2) | Growth Rate (Fibroblast; 18 h, replicate number 2) | Growth Rate (Fibroblast; 24 h, replicate number 2) | Growth Rate (U2OS; 0 h, replicate number 2) | Growth Rate (U2OS; 6 h, replicate number 2) | Growth Rate (U2OS; 12 h, replicate number 2) | Growth Rate (U2OS; 18 h, replicate number 1) | Growth Rate (U2OS; 18 h, replicate number 2) | Growth Rate (HEK-293T; 6 h, replicate number 1) | Growth Rate (HEK-293T; 6 h, replicate number 2) | Growth Rate (HEK-293T; 12 h, replicate number 1) | Growth Rate (HEK-293T; 12 h, replicate number 2) | Growth Rate (HEK-293T; 18 h, replicate number 2) | Growth Rate (Fibroblast; 12 h, replicate number 1) | other results |
| --- | --- | --- | --- | --- | --- | --- | --- | --- | --- | --- | --- | --- | --- | --- | --- | --- | --- | --- | --- | --- | --- |
| COc1ccc(S(=O)(=O)N2CCOCC2)cc1Nc1ccc2c(n1)N(C1CCOCC1)[C@H](C)C(=O)N2C | 0.7 | 0.96 | 0.7 | 0.81 | -0.13 | -0.44 | 0.55 | 0.25 | 0.36 |  |  |  |  |  |  |  |  |  |  |  |  |
| CN[C@@H](C)C(=O)N[C@H](C(=O)N1CCC[C@H]1C(=O)N[C@H](C(=O)NCCCCCCNC(=O)[C@@H](NC(=O)[C@@H]1CCCN1C(=O)[C@@H](NC(=O)[C@H](C)NC)C1CCCCC1)C(c1ccccc1)c1ccccc1)C(c1ccccc1)c1ccccc1)C1CCCCC1 (I: H-[NMeA][Chg]P[Dip] / II: H-[NMeA][Chg]P[Dip]; linker I:C-II:C via Hexamethylenediamine) | -0.22 | -0.21 | -0.23 | -0.25 | -0.82 |  | 0.74 | 0.49 | 0.33 | -0.47 | -0.46 | -0.63 | -0.25 | -0.21 | -0.33 | -0.41 | -0.42 | -0.4 | -0.31 | 0.82 | Growth Rate (U2OS; 6 h, replicate number 1): -0.4; Growth Rate (U2OS; 12 h, replicate number 1): -0.41; Growth Rate (HEK-293T; 18 h, replicate number 1): -0.3; Growth Rate (Fibroblast; 18 h, replicate number 1): 0.47; Growth Rate (Fibroblast; 24 h, replicate number 1): 0.5 |
| C[C@H](C[C@H](N)C(=O)O)C(=O)O [2S,4R-4-METHYLGLUTAMATE] |  | 0.94 |  |  | -0.67 | 0.92 | 0.66 |  | 0.97 |  | 0.65 | 0.89 |  | 0.82 |  |  |  |  |  |  | Growth Rate (HEK-293T; 0 h, replicate number 2): 0.9; Growth Rate (Fibroblast; 24 h, replicate number 1): 0.42 |
| N#CN1CC[C@H](C(=O)Nc2nc3c(s2)CN(C(=O)CN=[N+]=[N-])CC3)C1 [8RK64] |  | 0.89 |  | 0.94 | 0.48 |  |  |  |  |  |  |  |  | 0.94 |  | 0.66 | 0.99 | 0.81 | 0.93 | 0.41 |  |
| Cc1onc(O)c1CC(N)C(=O)O [(R,S)-AMPA] |  | 0.94 | 0.74 |  |  | -0.99 | 0.59 |  |  | -0.98 | 0.78 | 0.82 |  | 0.94 | 0.47 | 0.09 | 0.21 | 0.69 | 0.64 | -1 | Growth Rate (U2OS; 0 h, replicate number 1): -0.22; Growth Rate (HEK-293T; 0 h, replicate number 2): 0.65; Growth Rate (HEK-293T; 18 h, replicate number 1): 0.78; Growth Rate (Fibroblast; 0 h, replicate number 1): -0.2 |
| CCC(=N\O)/C(C)=C/c1ccc(F)cc1 [A-079] |  | 0.79 |  | 0.57 | -0.47 |  |  |  |  | -0.97 | 0.16 | 0.89 | 1 | 0.78 | 0.09 | -0.79 |  | -0.09 | 0.33 |  | Growth Rate (U2OS; 6 h, replicate number 1): 0.53; Growth Rate (Fibroblast; 6 h, replicate number 1): 0.02; Growth Rate (Fibroblast; 18 h, replicate number 1): 0.86 |
| O=C(Cc1ccccc1)Nc1nnc(N2CC[C@@H]3[C@H]2CN3c2cccnn2)s1 [A-426] | 0.84 |  | 0.85 |  |  | 0.16 | 0.86 | 0.69 |  |  |  |  | 0.77 |  | 0.31 |  | 0.39 |  |  | 0.76 | Growth Rate (U2OS; 0 h, replicate number 1): -0.69; Growth Rate (U2OS; 6 h, replicate number 1): 0.79; Growth Rate (U2OS; 12 h, replicate number 1): 0.69; Growth Rate (HEK-293T; 18 h, replicate number 1): 0.67; Growth Rate (Fibroblast; 6 h, replicate number 1): 0.66; Growth Rate (Fibroblast; 18 h, replicate number 1): 0.8; Growth Rate (Fibroblast; 24 h, replicate number 1): 0.73 |
| O=C(Cc1ccccc1)Nc1nnc(N2C[C@H]3C[C@@H]2CN3c2cccnn2)s1 [A-446] | 0.87 | 0.77 | 0.93 | 0.94 | 0.67 | -0.04 | 0.18 | 0.19 | 0.04 | 0.56 | 0.43 | 0.59 | 0.54 | 0.8 |  | 0.68 | 0.83 | 0.97 | 0.86 | 0.45 | Growth Rate (U2OS; 0 h, replicate number 1): 0.34; Growth Rate (U2OS; 6 h, replicate number 1): 0.82; Growth Rate (U2OS; 12 h, replicate number 1): 0.68; Growth Rate (HEK-293T; 0 h, replicate number 1): 0.58; Growth Rate (HEK-293T; 0 h, replicate number 2): -0.11; Growth Rate (Fibroblast; 6 h, replicate number 1): 0.15; Growth Rate (Fibroblast; 18 h, replicate number 1): 0.27; Growth Rate (Fibroblast; 24 h, replicate number 1): 0.33 |
| CCN1CCN(Cc2ccc(Nc3ncc(F)c(-c4cc(F)c5nc(C)n(C(C)C)c5c4)n3)nc2)CC1 [ABEMACICLIB] | 0.63 | 0.4 | 0.54 | 0.44 |  |  |  |  |  |  |  | 0.9 | 0.62 | 0.56 | 0.74 | 0.78 | 0.31 | 0.37 | 0.44 |  | Growth Rate (U2OS; 0 h, replicate number 1): -0.95; Growth Rate (U2OS; 12 h, replicate number 1): 0.83; Growth Rate (HEK-293T; 0 h, replicate number 1): -1; Growth Rate (HEK-293T; 0 h, replicate number 2): -0.03; Growth Rate (HEK-293T; 18 h, replicate number 1): 0.35; Growth Rate (Fibroblast; 0 h, replicate number 1): -1 |
